Patent publication US12428413B2 (CHDI Foundation, Inc., priority 2019, dated 2025)
pIC50: −log10 of the molar value. Where two headings read alike, the source gives them in different places.

Legend:
[1] = system: cellular ROCK activity (cofilin phosphorylation at Ser3) in A7r5 rat smooth muscle cells; test: Cellular ROCK activity: cofilin (Ser3) phosphorylation, In-Cell Western assay; type: cell-based; settings: Rattus norvegicus, 1 hour compound incubation, phospho-cofilin (Ser3), read-out: CELL_IC50
In short: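 A7r5 rat smooth muscle cells (3000/well, overnight) exposed to compound for 1 h at 37° C., then formaldehyde-fixed. Phospho-cofilin Ser3 detected by In-Cell Western with 800CW secondary antibody, read at 700 and 800 nm on an Odyssey imager.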

[2] = target: human catalytic domain ROCK II protein (amino acids 5-554) with a N-terminal GST tag (Homo sapiens, UniProt O75116); test: biochemical
Chain of human catalytic domain ROCK II protein (amino acids 5-554) with a N-terminal GST tag (O75116 5-554): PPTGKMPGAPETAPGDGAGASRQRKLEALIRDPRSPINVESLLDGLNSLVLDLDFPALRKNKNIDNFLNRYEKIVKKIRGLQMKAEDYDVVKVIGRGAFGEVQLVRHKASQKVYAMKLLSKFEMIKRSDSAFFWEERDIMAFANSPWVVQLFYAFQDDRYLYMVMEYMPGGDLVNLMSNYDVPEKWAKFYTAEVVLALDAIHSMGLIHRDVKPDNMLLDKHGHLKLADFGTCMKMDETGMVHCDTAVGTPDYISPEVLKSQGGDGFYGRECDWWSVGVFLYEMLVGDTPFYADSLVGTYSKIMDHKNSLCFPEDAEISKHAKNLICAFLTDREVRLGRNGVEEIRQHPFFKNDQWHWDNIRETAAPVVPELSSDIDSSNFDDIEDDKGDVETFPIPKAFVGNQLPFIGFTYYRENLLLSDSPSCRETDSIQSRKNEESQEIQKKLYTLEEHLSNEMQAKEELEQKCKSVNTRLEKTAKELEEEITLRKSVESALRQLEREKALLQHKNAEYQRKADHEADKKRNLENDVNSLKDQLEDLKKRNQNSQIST

SMILES	pIC50 ([1]; A7R5, 1 h)	pIC50 [2]	pIC50 [1]
COc1ncccc1CNC(=O)N1CCN(c2ccncc2F)C[C@H]1C [Example 56, (R)-4-(3-Fluoropyridin-4-yl)-N-((2-methoxypyridin-3-yl)methyl)-2-methylpiperazine-1-carboxamide]	5.52	6.44	
C[C@@H]1CN(c2ccncc2F)CCN1C(=O)NCc1ccccc1Cl [Example 54, (R)—N-(2-Chlorobenzyl)-4-(3-fluoropyridin-4-yl)-2-methylpiperazine-1-carboxamide]	6.84	7.89	
O=C(NCc1ccccc1Cl)N1CCN(c2ccncc2F)CC1 [Example 130]	5.78	6.91	
COc1ccc(F)c([C@@H](C)NC(=O)N2CCN(c3ccncc3F)CC2)c1 [Example 126]	6.03	7.22	
[2H]C([2H])([2H])Oc1cccc([C@H](NC(=O)N2CCN(c3ccncc3F)CC2)C([2H])([2H])[2H])c1 [Example 131]	6.82	8.10	
C[C@@H]1CN(c2ccncc2F)CCN1C(=O)N[C@H](C)c1cccc2c1OC(F)(F)O2 [Example 67, (R)—N—((R)-1-(2,2-Difluorobenzo[d][1,3]dioxol-4-yl)ethyl)-4-(3-fluoropyridin-4-yl)-2-methylpiperazine-1-carboxamide]	6.61	8.00	
C[C@@H](NC(=O)N1CCN(c2ccncc2F)CC1)c1cccc2c1CCO2 [Example 28, (R)—N-(1-(2,3-Dihydrobenzofuran-4-yl)ethyl)-4-(3-fluoropyridin-4-yl)piperazine-1-carboxamide]	7.57	8.55	
COc1cccc(CNC(=O)N2CCN(c3ccnc(F)c3)C[C@H]2C)c1 [Example 107]	5.97	7.37	
COc1cccc([C@@H](C)NC(=O)N2CCN(c3ccncc3F)CC2)c1 [Example 16, (R)-4-(3-fluoropyridin-4-yl)-N-(1-(3-methoxyphenyl)ethyl)piperazine-1-carboxamide]	6.92	8.12	
C[C@@H](NC(=O)N1CCN(c2ccncc2F)[C@@H](C)C1)c1cccc2c1CCO2 [Example 147]	7.64	8.49	
COc1cc([C@@H](C)NC(=O)N2CCN(c3ccncc3F)C[C@H]2C)ccc1F [Example 53, (R)—N—((R)-1-(4-Fluoro-3-methoxyphenyl)ethyl)-4-(3-fluoropyridin-4-yl)-2-methylpiperazine-1-carboxamide]	7.48	8.46	
COc1cccc(CNC(=O)N2CCN(c3ccncc3F)[C@@H](C)C2)c1 [Example 150]	6.15	7.70	
Cc1cnc2cccc([C@@H](C)NC(=O)N3CCN(c4ccncc4F)C[C@H]3C)n12 [Example 65, (R)-4-(3-Fluoropyridin-4-yl)-2-methyl-N—((R)-1-(3-methylimidazo[1,2-a]pyridin-5-yl)ethyl)piperazine-1-carboxamide]	7.88	8.47	
C[C@@H](NC(=O)N1CCN(c2ccncc2F)[C@@H](C)C1)c1cccc(OC(F)F)c1 [Example 145]	6.38	7.91	
C[C@@H]1CN(c2ccncc2F)CCN1C(=O)N[C@H](C)c1cccc2nn(C)cc12 [Example 71, (R)-4-(3-Fluoropyridin-4-yl)-2-methyl-N—((R)-1-(2-methyl-2H-indazol-4-yl)ethyl)piperazine-1-carboxamide]	8.80	8.51	
COc1cccc(CN2C[C@H]3CN(c4ccncc4F)CCN3C2=O)c1 [Example 87, (R)-7-(3-Fluoropyridin-4-yl)-2-(3-methoxybenzyl)hexahydroimidazo[1,5-a]pyrazin-3(2H)-one]	≤ 5.30	5.83	
C[C@@H]1CN(c2ccncc2F)CCN1C(=O)NCc1cccc2c1OC(F)(F)O2 [Example 74, (R)—N-((2,2-Difluorobenzo[d][1,3]dioxol-4-yl)methyl)-4-(3-fluoropyridin-4-yl)-2-methylpiperazine-1-carboxamide Hemiformate]	6.01	7.25	
C[C@@H](NC(=O)N1CCN(c2ccnc(F)c2)[C@@H](C)C1)c1cccc(OC(F)F)c1 [Example 120]	5.40	7.23	
COc1cccc(CNC(=O)N2[C@H](C)CN(c3ccncc3F)C[C@H]2C)c1 [Example 95, (2R,6R)-4-(3-Fluoropyridin-4-yl)-N-(3-methoxybenzyl)-2,6-dimethylpiperazine-1-carboxamide]	5.94	7.42	
C[C@@H]1CN(c2ccnc(F)c2)CCN1C(=O)NCc1ccccc1Cl [Example 106]	5.79	6.73	
COc1cccc([C@@H](C)NC(=O)N2CCN(c3ccncc3F)CC2CO)c1 (stereo partly drawn) [Example 137]	7.10	8.32	

SMILES	pIC50 ([1]; A7R5, 1 h)	pIC50 [2]	pIC50 [1]
C[C@@H](NC(=O)N1CCN(c2ccncc2F)CC1)c1ccccc1Cl [Example 124]	5.93	7.21	
[2H]C([2H])([2H])Oc1cccc([C@@H](C)NC(=O)N2CCN(c3ccnc(F)c3)C[C@H]2C)c1 [Example 115]	6.86	8.09	
COc1cccc([C@@H](C)NC(=O)N2CCN(c3ccncc3F)C(=O)C2)c1 [Example 100, (R)-4-(3-Fluoropyridin-4-yl)-N-(1-(3-methoxyphenyl)ethyl)-3-oxopiperazine-1-carboxamide]		5.67	≤ 5.30
Cc1cnc2cccc([C@@H](C)NC(=O)N3CCN(c4ccnc(F)c4)C[C@H]3C)n12 [Example 9, (R)-4-(2-Fluoropyridin-4-yl)-2-methyl-N—((R)-1-(3-methylimidazo[1,2-a]pyridin-5-yl)ethyl)piperazine-1-carboxamide]	6.62	7.91	
COc1ccc(F)c(CNC(=O)N2CCN(c3ccncc3F)C[C@H]2C)c1 [Example 55, (R)—N-(2-Fluoro-5-methoxybenzyl)-4-(3-fluoropyridin-4-yl)-2-methylpiperazine-1-carboxamide]	6.22	7.63	
C[C@@H]1CN(c2ccncc2F)CCN1C(=O)OCc1cccc2nccn12 [Example 73, Imidazo[1,2-a]pyridin-5-ylmethyl (R)-4-(3-fluoropyridin-4-yl)-2-methylpiperazine-1-carboxylate]	5.85	6.64	
C[C@@H]1CN(c2ccnc(F)c2)CCN1C(=O)NCc1cccc2occc12 [Example 8, (R)—N-(Benzofuran-4-ylmethyl)-4-(2-fluoropyridin-4-yl)-2-methylpiperazine-1-carboxamide]	6.17	7.66	
COc1cccc(CNC(=O)N2CCN(c3ccncc3F)CC2)c1 [Example 25, 4-(3-Fluoropyridin-4-yl)-N-(3-methoxybenzyl)piperazine-1-carboxamide]	6.13	7.28	
C[C@@H]1CN(c2ccncc2F)CCN1C(=O)N[C@H](C)c1cccn2nccc12 [Example 61, (R)-4-(3-Fluoropyridin-4-yl)-2-methyl-N—((R)-1-(pyrazolo[1,5-a]pyridin-4-yl)ethyl)piperazine-1-carboxamide]	7.86	8.62	
COc1cccc([C@@H](C)NC(=O)N2C[C@@H]3C[C@H]2CN3c2ccncc2F)c1 [Example 99]	≤ 5.30	5.51	
C[C@@H]1CN(c2ccncc2F)CCN1C(=O)NCc1cccc2nn(C)cc12 [Example 78, (R)-4-(3-Fluoropyridin-4-yl)-2-methyl-N-((2-methyl-2H-indazol-4-yl)methyl)piperazine-1-carboxamide]	7.46	8.38	
C[C@@H]1CN(c2ccncc2F)CCN1C(=O)NCc1cccc(OC(F)F)c1 [Example 139]	6.31	8.00	
C[C@@H](NC(=O)N1CCN(c2ccncc2F)CC1)c1cccc2c1OCO2 [Example 27, (R)—N-(1-(Benzo[d][1,3]dioxol-4-yl)ethyl)-4-(3-fluoropyridin-4-yl)piperazine-1-carboxamide]	7.06	8.24	
CC(NC(=O)N1CCN(c2ccncc2F)CC1)c1cccc(F)c1Cl (single isomer, unassigned) [Example 22, N-(1-(2-Chloro-3-fluorophenyl)ethyl)-4-(3-fluoropyridin-4-yl)piperazine-1-carboxamide]	5.99	7.33	
C[C@@H]1CN(c2ccnc(F)c2)CCN1C(=O)NCc1cccc2nn(C)cc12 [Example 11, (R)-4-(2-Fluoropyridin-4-yl)-2-methyl-N-((2-methyl-2H-indazol-4-yl)methyl)piperazine-1-carboxamide]	6.39	7.49	
[2H]C([2H])([2H])Oc1cccc([C@H](NC(=O)N2CCN(c3ccncc3F)C[C@H]2C)C([2H])([2H])[2H])c1 [Example 81, (R)-4-(3-Fluoropyridin-4-yl)-N—((R)-1-(3-(methoxy-d3)phenyl)ethyl-2,2,2-d3)-2-methylpiperazine-1-carboxamide]	8.09	8.43	
C[C@@H](NC(=O)N1CCN(c2ccncc2F)CC1)c1cccc(OC(F)F)c1 [Example 127]	6.37	7.62	
C[C@H](NC(=O)N1CCN(c2ccncc2F)C[C@H]1C)c1cccc2c1N(C)CCO2 [Example 144]	6.17	7.89	
C[C@@H]1CN(c2ccnc(F)c2)CCN1C(=O)N[C@H](C)c1cccc2c1CCO2 [Example 114]	7.52	8.46	
C[C@@H]1CN(c2ccncc2F)CCN1C(=O)N[C@H](C)c1cccc2c1OCO2 [Example 68, (R)—N—((R)-1-(Benzo[d][1,3]dioxol-4-yl)ethyl)-4-(3-fluoropyridin-4-yl)-2-methylpiperazine-1-carboxamide]	7.77	8.38	
COc1cccc([C@@H](C)NC(=O)N2CCN(c3ccncc3F)[C@@H]3C[C@@H]32)c1 [Example 151]	6.15	7.28	
